PMC5349447, “Applying a high-throughput fluorescence polarization assay for the discovery of chemical probes blocking La:RNA interactions in vitro and in cells” (PLoS ONE, 2017)

Legend:
MRC5 cells = experiment: Cell toxicity, CyQUANT cell number, MRC5; type: cell-based, human; conditions: 48 h, up to 150 μM
Experimental: (§1) Normal fibroblast MRC5 and human embryonic kidney HEK293 cells were purchased from ATCC. Head and neck squamous cell carcinoma cell lines UM-SCC 22A (SCC 22A) and UM-SCC 22B (SCC 22B) were described elsewhere. MRC5 cells were cultured in EMEM plus 10% FBS; SCC 22A, SCC 22B, and HEK293 cells were cultured in advanced DMEM (Gibco) containing 2 mM L-glutamine (Life Technology) and 10% FBS. All cell lines were tested for mycoplasma contamination by applying a MycoSensor PCR Assay kit according to the manufacturer’s instructions (Agilent Technologies).
(§2) To test for cell toxicity the compounds were dissolved in 100% DMSO to a concentration of 100 mM. Subsequently, compounds were diluted in media to 10 mM (10% DMSO), 1 mM (1% DMSO) and tested at 150, 125, 100, 75, 50, 25 μM in SCC 22B and MRC5 cells. To reach this concentration compounds (stock 1 mM, 1% DMSO) were diluted in the cell culture dish (96-well format, 100 μl final volume) as follows: 150 μM = 6.7 fold (final DMSO: 0.15%); 125 μM = 8.0 fold (final DMSO: 0.125%); 100 μM = 10 fold (final DMSO: 0.1%); 75 μM = 13.3 fold (final DMSO: 0.075%); 50 μM = 20 fold (final DMSO: 0.05%); and 25 μM = 40 fold (final DMSO: 0.025%). As a control the highest DMSO concentration of 0.15% was used. Cells were cultured in appropriate media (see above) for 48h. Subsequently, cells were washed twice with 1x PBS and quantified after staining with fluorescence dye (CyQUANT®, Life Technologies). For this experiments 3x10^4 of MRC5 and 1x10^4 SCC 22B cells were plate the day before the experiment.

SCC 22B cells [1] = experiment: Cell toxicity, CyQUANT cell number, SCC 22B; type: cell-based, human; conditions: for effect on SCC 22B cell numbers: 48 h, 12.5-150 μM
Experimental: as §1, §2

La-WT:fD1-RNA complex = test system: T1, La-WT:fD1-RNA complex; experiment: EMSA, compound competition, La-WT:fD1; type: binding, human; conditions: La-WT 60 nM, fD1 50 nM
T1 construct: His; made in house; host or cells: E. coli BL21
Experimental: 12% native TBE polyacrylamide gels were prepared in a Mini-PROTEAN Tetra Handcast System (BioRad). The gel was pre-run for 30 min at 140 V in 1x TBE buffer (45 mM Tris/HCl pH 8.5, 45 mM boric acid, 1 mM EDTA). To prepare the RNA-mix, fluorescence labeled RNA oligoribonucleotides (oligos) were diluted in fluorescence polarization buffer (20 mM Tris/HCl (pH 7.4), 150 mM NaCl, 3.0 mM MgCl2, 0.5 mM EDTA, 0.05% (v/v) IGEPAL), mixed for 10 min at 80°C, and then immediately placed on ice for at least 5 min. All RNA oligos were used at a final concentration of 50 nM. Recombinant La protein was diluted in D-buffer (20 mM Tris/ HCl (pH 7.4), 150mM NaCl, 3mM MgCl2, 0.5mM EDTA, 5% glycerol) and placed on ice until use.
La titration was performed at final concentrations of 20, 40, 60, 100, 200, 300, 400, 500, 600 nM La. Three different La concentrations were used for compound studies: 60 nM for fD1 RNA, 200 nM for fPolyU RNA, and 150 nM for TOPf RNA studies. Two μl of diluted compound (diluted in 100% DMSO) or 2 μl 100% DMSO (control reaction) was combined with 8 μl La-mix in a 96-well plate. 10 μl RNA-mix was added, mixed for 2 min, and incubated for 10 min at RT in the dark. Final concentrations in the reaction: 18 mM Tris/HCl (pH 7.4), 135 mM NaCl, 2.7 mM MgCl2, 0.45 mM EDTA, 0.025% (v/v) IGEPAL, 2% glycerol, 10% DMSO). Samples were loaded onto the pre-run gel without any loading buffer. Gels were run at 160 V for 40 min in the dark. The gels were carefully transferred to a clear plastic wrap and scanned using a Typhoon FLA900 imager. The La-RNA complex (La-RNP) formation was quantified using the ImageQuant TL software.
Next we used our established EMSA to test whether compound C2 and C6 can compete against the three RNA oligos: fD1, fPolyU, and TOPf. All of the EMSA reactions were loaded in the following order: lane 1 contains the RNA oligo alone; lane 2 contains the RNA oligo plus La protein at concentration that shifts 50% of the RNA oligo (positive control); lanes 3–9 contain the RNA oligo, La protein and decreasing concentrations of the compound; and lane 10 contains the RNA oligo and the highest compound concentration (negative control).

SCC 22A cells = test system: SCC 22A cells; parameters: method as in PMID 27105491; conditions: used as treatment concentration, read-out: cisplatin IC50; cited from earlier work
SCC 22B cells [2] = experiment: Cisplatin sensitization, CyQUANT, SCC 22B; type: cell-based, human; conditions: SCC 22B
Experimental: To test whether compound C2.01 sensitizes cells for cisplatin, cells were treated with 0.2% DMSO alone, cisplatin at 4, 8, 16, 32 or 64 μM concentration alone or in combination with 50 μM compound C2.01. The half maximal inhibitory concentration (IC50) of cisplatin was determined by treating SCC 22B cells with increasing cisplatin (Selleckchem) concentrations or vehicle (DMSO) for 48 h (96-well format) as described recently. For this experiments 1x10^4 SCC 22B cells were plated the day before the experiment. DMSO or C2.01 was added to a final concentration of DMSO (0.05%) and C2.01 (50 μM). Six hours later the different cisplatin concentrations were added. The highest DMSO concentration of 0.25% was used in the control for cisplatin and C2.01 double treatment. Subsequently, cells were washed twice with 1x PBS and quantified after staining with fluorescence dye (CyQUANT®, Life Technologies) 48 after the initial C2.01 treatment.

[3] = target: T2, La-WT (La autoantigen, LARP3) (human, UniProt P05455 1-408); experiment: EMSA; EMSA: about 20 mM Tris-HCl pH 7.4, 150 mM NaCl, 3 mM MgCl2, 0.5 mM EDTA, IGEPAL, glycerol, 50 nM RNA, RT 10 min (with compounds: 18 mM Tris, 135 mM NaCl, 2.7 mM MgCl2, 0.45 mM EDTA, 0.025% IGEPAL, 2% glycerol, 10% DMSO); FP: 20 mM Tris-HCl pH 7.5, 3 mM MgCl2, 0.5 mM EDTA, 150 mM NaCl, 0.05% IGEPAL, 100 ug/ml BGG, RT 15 min; conditions: protein: recombinant, tags: His
T2 sequence: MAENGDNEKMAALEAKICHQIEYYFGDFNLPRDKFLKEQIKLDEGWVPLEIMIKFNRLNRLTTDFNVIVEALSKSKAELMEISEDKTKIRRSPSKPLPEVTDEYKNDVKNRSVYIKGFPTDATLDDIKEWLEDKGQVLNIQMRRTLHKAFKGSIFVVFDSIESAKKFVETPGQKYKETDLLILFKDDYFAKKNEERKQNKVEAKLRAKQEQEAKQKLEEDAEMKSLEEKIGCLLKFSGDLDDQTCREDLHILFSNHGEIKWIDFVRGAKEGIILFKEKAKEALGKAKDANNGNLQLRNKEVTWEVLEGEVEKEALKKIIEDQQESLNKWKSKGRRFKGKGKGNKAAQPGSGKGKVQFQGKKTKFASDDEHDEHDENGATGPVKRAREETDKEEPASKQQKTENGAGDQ

La-RRM1+2 = target: T3, La-RRM1+2 (human, UniProt P05455 111-348); experiment: as above; conditions: protein: recombinant, tags: His
T3 sequence: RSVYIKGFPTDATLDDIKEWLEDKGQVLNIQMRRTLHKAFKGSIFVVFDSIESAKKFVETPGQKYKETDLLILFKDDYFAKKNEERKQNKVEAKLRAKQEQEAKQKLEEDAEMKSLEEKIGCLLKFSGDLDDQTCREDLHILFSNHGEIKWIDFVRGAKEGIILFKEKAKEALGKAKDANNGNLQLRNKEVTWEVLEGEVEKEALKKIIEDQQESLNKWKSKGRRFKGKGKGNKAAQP

[4] = target: T2, La-WT (La autoantigen, LARP3); experiment: competition; EMSA vs TOPf; EMSA: about 20 mM Tris-HCl pH 7.4, 150 mM NaCl, 3 mM MgCl2, 0.5 mM EDTA, IGEPAL, glycerol, 50 nM RNA, RT 10 min (with compounds: 18 mM Tris, 135 mM NaCl, 2.7 mM MgCl2, 0.45 mM EDTA, 0.025% IGEPAL, 2% glycerol, 10% DMSO); FP: 20 mM Tris-HCl pH 7.5, 3 mM MgCl2, 0.5 mM EDTA, 150 mM NaCl, 0.05% IGEPAL, 100 ug/ml BGG, RT 15 min; conditions: protein: recombinant; tags: His; label: none

For `O=C(O)c1ccccc1C(=O)c1ccc2ccccc2c1O` [C2.02, 2-(1-hydroxy-2-naphthoyl)benzoic acid], the “toxic effect on MRC5 cells (normal fibroblasts)” value (from here on “toxic effect on MRC5 cells”) (MRC5 cells) was “toxic effect”, the “effect on SCC 22B cell numbers” value (SCC 22B cells [1]) was “no effect” and the “competition for La:fD1 interaction (EMSA), in words” value (“competition for La:fD1 interaction” for short) (La-WT:fD1-RNA complex) was “lower concentration”.

With `CCCCOC(=O)c1ccc2c(c1)C1C=CCC1C(C(=O)O)N2` (centres unmarked) [C6.02, 8-(butoxycarbonyl)-3a,4,5,9b-tetrahydro-3H-cyclopenta[c]quinoline-4-carboxylic acid] the “toxic effect on MRC5 cells” value (MRC5 cells) was “toxic effect”, the “effect on SCC 22B cell numbers” value (SCC 22B cells [1]) was “reduced SCC 22B cell numbers even at low concentrations” and the “competition for La:fD1 interaction” value (La-WT:fD1-RNA complex) was “slightly lower concentrations than C6.00”.

In the case of `N.N.[Cl][Pt][Cl]` [cisplatin], the IC50 (SCC 22A cells) is listed as 12000 nM, the IC50 (SCC 22B cells [2]; pretreatment with 50 μM C2.01, 48 hours) is listed as 18000 nM and the IC50 (SCC 22B cells [2]; vehicle (DMSO) pretreatment, 48 hours) is listed as 32000 nM.

With `CC(C)COC(=O)c1ccc2c(c1)C1C=CCC1C(C(=O)O)N2` (centres unmarked) [C6.01, 8-(isobutoxycarbonyl)-3a,4,5,9b-tetrahydro-3H-cyclopenta[c]quinoline-4-carboxylic acid] the “toxic effect on MRC5 cells” value (MRC5 cells) was “toxic effect”, the “effect on SCC 22B cell numbers” value (SCC 22B cells [1]) was “reduced SCC 22B cell numbers even at low concentrations” and the “selectivity: cancer cell numbers compared to effect on normal MRC5 cells” value (SCC 22B cells [1]; SCC 22B versus MRC5, 48 h) was “preferentially reduced cancer cell numbers”. The “competition for La:fD1 interaction” value (La-WT:fD1-RNA complex) was “slightly lower concentrations than C6.00”.

GCUGCCCAGGAAGAGCCCCAGCCAUGGAACACCAGCUCCUGUGCUGC (structured_RNA) [fD1] showed a Kd ([3]; hairpin (mfold prediction)) of 85 ± 7.5 nM and a Kd (La-RRM1+2; hairpin (mfold prediction)) of 81.7 ± 12.6 nM.

For UGCUGUUUU (ssRNA) [fPolyU], the Kd ([3]; no structure predicted) was 138 ± 12.6 nM and the binding result (La-RRM1+2; no structure predicted) was “no binding”.

GGCCCUUUUCCCACCCCCUAGCGCCGCUGGGCCU (ssRNA) [TOP-mu2]: binds [4].

With CCCUUUUCCCACCCCCUAGCGCCGCUGGGCCU (structured_RNA) [TOPf] the Kd ([3]; mfold predicted structure) was 147 ± 35.1 nM.

CCCUUUUCCCACCCCCUAGCGCCGCUGGGCCU (structured_RNA, 5' m7G cap) [capTOPf] showed a Kd [3] of 183 ± 15.3 nM.
